The Ki is the dissociation constant of the complex between target and ligand, obtained from inhibition or displacement. What is called EC50 is the concentration at which the effect is half-maximal.

The text below walks through data of article PMC9940855, “First-in-Class Dual Hybrid Carbonic Anhydrase Inhibitors and Transient Receptor Potential Vanilloid 1 Agonists Revert Oxaliplatin-Induced Neuropathy” (Journal of Medicinal Chemistry, 2023).

The structures appear in SMILES notation. Where “and” joins values, the source holds several entries; their conditions need not be identical. Identical values can stand only once.

For one test, the target named is hCA VII (Homo sapiens, UniProt P43166). Particulars: read-out: KI hCA VII; stopped-flow CO2 hydrase assay; mean from three different assays, errors ±5–10%.
hCA VII, sequence (P43166 whole entry): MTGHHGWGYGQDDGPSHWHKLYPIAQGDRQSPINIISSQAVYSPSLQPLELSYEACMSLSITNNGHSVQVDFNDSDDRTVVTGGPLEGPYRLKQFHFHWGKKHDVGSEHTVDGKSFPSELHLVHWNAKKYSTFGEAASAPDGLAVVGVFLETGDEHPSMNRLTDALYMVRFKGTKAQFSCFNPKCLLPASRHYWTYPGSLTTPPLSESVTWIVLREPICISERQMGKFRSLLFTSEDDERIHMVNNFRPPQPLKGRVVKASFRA
A further test addresses hCA II (Homo sapiens, UniProt P00918). Particulars: read-out: KI hCA II; stopped-flow CO2 hydrase assay; mean from three different assays, errors ±5–10%.
Another test addresses hCA XII (Homo sapiens, UniProt O43570). Particulars: read-out: KI hCA XII; stopped-flow CO2 hydrase assay; mean from three different assays, errors ±5–10%.
The target of another test is hCA I (Homo sapiens, UniProt P00915). Particulars: read-out: KI hCA I; stopped-flow CO2 hydrase assay; mean from three different assays, errors ±5–10%.
hCA I, sequence (P00915 whole entry): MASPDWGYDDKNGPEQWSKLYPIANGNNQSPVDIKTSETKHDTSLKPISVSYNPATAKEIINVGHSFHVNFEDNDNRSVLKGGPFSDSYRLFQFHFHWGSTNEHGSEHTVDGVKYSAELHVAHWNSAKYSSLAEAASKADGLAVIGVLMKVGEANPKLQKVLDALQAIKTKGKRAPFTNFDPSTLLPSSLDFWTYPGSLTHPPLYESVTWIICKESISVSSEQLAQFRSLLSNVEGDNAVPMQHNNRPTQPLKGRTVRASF
For a further test, the target named is hCA IV (Homo sapiens, UniProt P22748). Particulars: read-out: KI hCA IV; stopped-flow CO2 hydrase assay; mean from three different assays, errors ±5–10%.
hCA IV, sequence (P22748 19-312): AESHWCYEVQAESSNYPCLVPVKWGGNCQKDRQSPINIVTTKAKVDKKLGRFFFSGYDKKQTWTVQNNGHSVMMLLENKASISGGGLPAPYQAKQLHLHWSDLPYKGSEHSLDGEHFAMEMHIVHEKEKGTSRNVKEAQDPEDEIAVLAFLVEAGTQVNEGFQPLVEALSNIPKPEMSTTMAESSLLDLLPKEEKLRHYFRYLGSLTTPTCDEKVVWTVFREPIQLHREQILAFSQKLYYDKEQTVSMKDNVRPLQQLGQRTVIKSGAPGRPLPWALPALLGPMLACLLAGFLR
For the next test, the target named is T1, hCA IX (Homo sapiens, UniProt Q16790).
T1 construct: made in house
Type of test: biochemical.

For a further test, the target named is T2, TRPV1 receptor (Homo sapiens, UniProt Q8NER1).
T2 construct: expressed in transfected cells
T2 sequence (Q8NER1 whole entry): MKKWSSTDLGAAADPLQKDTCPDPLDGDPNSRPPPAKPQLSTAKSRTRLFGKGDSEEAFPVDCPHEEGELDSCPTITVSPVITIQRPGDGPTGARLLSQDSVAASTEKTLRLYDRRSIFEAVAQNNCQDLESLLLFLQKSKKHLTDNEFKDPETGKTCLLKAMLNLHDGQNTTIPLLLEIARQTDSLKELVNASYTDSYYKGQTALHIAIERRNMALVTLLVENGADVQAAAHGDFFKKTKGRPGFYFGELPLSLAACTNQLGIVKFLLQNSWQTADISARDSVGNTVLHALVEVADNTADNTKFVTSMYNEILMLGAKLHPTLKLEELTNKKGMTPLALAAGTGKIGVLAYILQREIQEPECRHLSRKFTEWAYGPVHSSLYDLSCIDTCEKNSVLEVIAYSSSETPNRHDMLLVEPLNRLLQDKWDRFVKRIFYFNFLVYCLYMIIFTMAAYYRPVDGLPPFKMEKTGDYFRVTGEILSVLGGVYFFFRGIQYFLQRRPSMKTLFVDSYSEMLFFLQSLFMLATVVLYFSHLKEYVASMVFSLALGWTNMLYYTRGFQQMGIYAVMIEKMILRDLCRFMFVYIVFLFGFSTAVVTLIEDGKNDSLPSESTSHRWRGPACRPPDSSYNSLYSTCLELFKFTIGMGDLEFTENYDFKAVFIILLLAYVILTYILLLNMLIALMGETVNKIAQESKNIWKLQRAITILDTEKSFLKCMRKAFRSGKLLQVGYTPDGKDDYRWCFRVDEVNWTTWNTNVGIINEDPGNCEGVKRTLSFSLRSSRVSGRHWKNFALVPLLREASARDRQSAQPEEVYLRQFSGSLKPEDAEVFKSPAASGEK
The test is described as follows: TRPV1 assay, Fluo-4NW fluorescence in SH-SY5Y-TRPV1 cells. Type of test: cell-based. Particulars: read-out: EC50 on TRPV1 receptor activity (agonism). How it is done:
SH-SY5Y-TRPV1 cells (kindly provided by Johanna Lilja and Anna Forsby (University of Stockholm, Stockholm, Sweden))[40] were cultured in 96 wells. Upon 90% confluence had been reached, the cells were loaded with 5 μM Fluo-4NW for 1 h at 37 °C. […] Briefly, after measuring the basal fluorescence of the plate (four cycles), testing compounds were added to the plate, and the fluorescence was measured for additional 10 cycles; thereafter, 10 μM capsaicin was added with a microinjector and the fluorescence was monitored for an additional 10 cycles.

hCA XII, sequence (O43570 25-354): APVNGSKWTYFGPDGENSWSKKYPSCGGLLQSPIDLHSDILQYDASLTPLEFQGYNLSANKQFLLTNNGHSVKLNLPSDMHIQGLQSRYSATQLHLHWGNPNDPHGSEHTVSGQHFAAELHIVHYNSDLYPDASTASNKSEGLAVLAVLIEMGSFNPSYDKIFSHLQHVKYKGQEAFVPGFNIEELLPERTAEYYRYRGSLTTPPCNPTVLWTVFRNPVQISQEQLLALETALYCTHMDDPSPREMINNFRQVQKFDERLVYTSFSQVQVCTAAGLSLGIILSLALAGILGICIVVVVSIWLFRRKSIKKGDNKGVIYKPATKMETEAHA

Regarding `NS(=O)(=O)c1ccc(NC(=O)N[C@@H]2CCN(c3ccccn3)C2)cc1` [41a, (R)-4-(3-(1-(Pyridin-2-yl)pyrrolidin-3-yl)ureido)benzenesulfonamide], the Ki at hCA VII came to 9.5 nM; on hCA II, 8 nM; on hCA XII, 31.6 nM; at hCA I it was 58.3 nM; on hCA IV, 3510 nM; on hCA IX it was 29.1 nM.

On to `NS(=O)(=O)c1cccc(NC(=S)N[C@H]2CCN(c3cccc([N+](=O)[O-])n3)C2)c1` [38b, (S)-3-(3-(1-(6-Nitropyridin-2-yl)pyrrolidin-3-yl)thioureido)benzenesulfonamide], for which the Ki is 15.6 nM on hCA VII; 3.9 nM on hCA II; 9.3 nM on hCA XII; 8.7 nM at hCA I; 1300 nM on hCA IV; 1.4 nM on hCA IX. Moreover, the “fold more active than its enantiomer, hCA IX” value on hCA IX was “over 100 fold”.

`NS(=O)(=O)c1ccc(NC(=O)N[C@H]2CCN(c3ccc(C(F)(F)F)cn3)C2)cc1` [45b, (S)-4-(3-(1-(5-(Trifluoromethyl)pyridin-2-yl)pyrrolidin-3-yl)ureido)benzenesulfonamide]: the Ki stood at 12.8 nM at hCA VII; 46.3 nM on hCA II; 8.6 nM at hCA XII; 68.6 nM on hCA I; 9710 nM at hCA IV; 54 nM at hCA IX.

For the molecule `COc1ccccc1NC(=O)N[C@H]1CCN(c2ccc(S(N)(=O)=O)cn2)C1` [18b, (S)-6-(3-(3-(2-Methoxyphenyl)ureido)pyrrolidin-1-yl)pyridine-3-sulfonamide], the Ki is 58.8 nM at hCA VII; 310 nM at hCA II; 38.5 nM on hCA XII; 476 nM on hCA I; 7860 nM on hCA IV; 61.8 nM at hCA IX.

In the case of `NS(=O)(=O)c1ccc(N2CC[C@H](NC(=S)Nc3ccc(C4c5ccc(O)cc5Oc5cc(O)ccc54)c(C(=O)O)c3)C2)nc1` [17b, (S)-2-(3,6-Dihydroxy-9H-xanthen-9-yl)-5-(3-(1-(5-sulfamoylpyridin-2-yl)pyrrolidin-3-yl)thioureido)benzoic Acid], the Ki on hCA VII worked out at 14.9 nM; at hCA II it was 42.9 nM; at hCA XII, 27.8 nM; at hCA I, 91.5 nM; at hCA IV, 5220 nM; at hCA IX, 8.6 nM.

With `NS(=O)(=O)c1ccc(N2CC[C@@H](NC(=O)Nc3ccccc3F)C2)nc1` [11a, (R)-6-(3-(3-(2-Fluorophenyl)ureido)pyrrolidin-1-yl)pyridine-3-sulfonamide], the values for the Ki on hCA VII, on hCA XII and at hCA I were 187 nM, 73 nM and 37 nM, respectively. In addition, the EC50 at TRPV1 receptor is > 100000 nM.

Consider `NS(=O)(=O)c1cccc(NC(=O)N[C@@H]2CCN(c3ccccn3)C2)c1` [42a, (R)-3-(3-(1-(Pyridin-2-yl)pyrrolidin-3-yl)ureido)benzenesulfonamide], for which the Ki amounted to 8.1 nM at hCA VII; 1.7 nM on hCA II; 8.2 nM at hCA XII; 9.6 nM on hCA I; 2480 nM at hCA IV; 126 nM on hCA IX.

With `NS(=O)(=O)c1ccc(N2CC[C@@H](NC(=O)NS(=O)(=O)c3ccccc3)C2)nc1` [24a, (R)-6-(3-(3-(Phenylsulfonyl)ureido)pyrrolidin-1-yl)pyridine-3-sulfonamide], the Ki on hCA VII came out at 78.8 nM; on hCA II, 513 nM; at hCA XII, 49.3 nM; at hCA I it was 19.5 nM; on hCA IV, 36.6 nM; on hCA IX, 27.5 nM.

As for `NS(=O)(=O)c1cccc(NC(=O)N[C@H]2CCN(c3cccc([N+](=O)[O-])n3)C2)c1` [44b, (S)-3-(3-(1-(6-Nitropyridin-2-yl)pyrrolidin-3-yl)ureido)benzenesulfonamide], the Ki at hCA VII was 17.7 nM; at hCA II, 6.6 nM; on hCA XII, 48.4 nM; on hCA I it was 87.2 nM; on hCA IV it was 9550 nM; on hCA IX, 193 nM.

Take `NS(=O)(=O)c1ccc(NC(=S)N[C@H]2CCN(c3ccc(C(F)(F)F)cn3)C2)cc1` [39b, (S)-4-(3-(1-(5-(Trifluoromethyl)pyridin-2-yl)pyrrolidin-3-yl)thioureido)benzenesulfonamide]: the inhibition constant (Ki) on hCA VII turned out to be 15.7 nM; at hCA XII it was 9.4 nM; on hCA IV, 9720 nM; at hCA IX, 6 nM. Also, on TRPV1 receptor, the EC50 turned out to be 12500 nM.

Regarding `NS(=O)(=O)c1ccc(NC(=S)N[C@@H]2CCN(c3ccc(C(F)(F)F)cn3)C2)cc1` [39a, (R)-4-(3-(1-(5-(Trifluoromethyl)pyridin-2-yl)pyrrolidin-3-yl)thioureido)benzenesulfonamide], the Ki on hCA VII stood at 73.3 nM; at hCA XII, 62.5 nM; at hCA IV, 4970 nM; on hCA IX, 355 nM. Also, the EC50 on TRPV1 receptor was 12500 nM and 12400 nM.

For `NS(=O)(=O)c1ccc(N2CC[C@@H](NC(=O)Nc3ccc(Oc4ccccc4)cc3)C2)nc1` [13a, (R)-6-(3-(3-(4-Phenoxyphenyl)ureido)pyrrolidin-1-yl)pyridine-3-sulfonamide], the Ki on hCA VII is 76.9 nM; at hCA XII it was 407 nM; at hCA IX, 245 nM. Also, the EC50 at TRPV1 receptor is > 100000 nM.

For `NS(=O)(=O)c1ccc(NC(=S)N[C@H]2CCN(c3cccc([N+](=O)[O-])n3)C2)cc1` [37b, (S)-4-(3-(1-(6-Nitropyridin-2-yl)pyrrolidin-3-yl)thioureido)benzenesulfonamide], the Ki at hCA VII was determined as 7.7 nM; on hCA II, 4.9 nM; at hCA XII, 8.8 nM; at hCA I, 54.5 nM; on hCA IV, 3200 nM; at hCA IX, 1.3 nM.

As to `NS(=O)(=O)c1cccc(NC(=S)N[C@@H]2CCN(c3ccc(C(F)(F)F)cn3)C2)c1` [40a, (R)-3-(3-(1-(5-(Trifluoromethyl)pyridin-2-yl)pyrrolidin-3-yl)thioureido)benzenesulfonamide], the inhibition constant Ki on hCA VII was 55.1 nM; at hCA I, 490 nM; on hCA IX, 36.4 nM. Also, the EC50 on TRPV1 receptor came to 21900 nM.

With `NS(=O)(=O)c1ccc(NC(=O)N[C@H]2CCN(c3cccc([N+](=O)[O-])n3)C2)cc1` [43b, (S)-4-(3-(1-(6-Nitropyridin-2-yl)pyrrolidin-3-yl)ureido)benzenesulfonamide], the Ki at hCA VII was found to be 8.7 nM; at hCA II, 14.9 nM; on hCA XII, 9.1 nM; at hCA I, 76.2 nM; at hCA IV it was 8230 nM; at hCA IX, 26.9 nM.

For the molecule `NS(=O)(=O)c1ccc(N2CC[C@H](NC(=S)Nc3ccccc3F)C2)nc1` [21b, (S)-6-(3-(3-(2-Fluorophenyl)thioureido)pyrrolidin-1-yl)pyridine-3-sulfonamide], the Ki at hCA II is 31.3 nM; at hCA XII, 41 nM; on hCA I it was 68.7 nM; on hCA IV, 843 nM; on hCA IX, 7.2 nM.

With `NS(=O)(=O)c1ccc(N2CC[C@@H](NC(=S)Nc3ccc(C4c5ccc(O)cc5Oc5cc(O)ccc54)c(C(=O)O)c3)C2)nc1` [17a, (R)-2-(3,6-Dihydroxy-9H-xanthen-9-yl)-5-(3-(1-(5-sulfamoylpyridin-2-yl)pyrrolidin-3-yl)thioureido)benzoic Acid], the Ki turned out to be 7.8 nM at hCA VII; 42.2 nM on hCA II; 3.9 nM at hCA XII; 80.6 nM at hCA I; 849 nM on hCA IV; 32 nM on hCA IX.

As to `NS(=O)(=O)c1ccc(NC(=O)N[C@@H]2CCN(c3ccc(C(F)(F)F)cn3)C2)cc1` [45a, (R)-4-(3-(1-(5-(Trifluoromethyl)pyridin-2-yl)pyrrolidin-3-yl)ureido)benzenesulfonamide], the Ki came to 8.2 nM at hCA VII; 27.4 nM on hCA II; 6.3 nM on hCA XII; 72.4 nM at hCA I; 3900 nM on hCA IV; 36.7 nM at hCA IX.

In the case of `NS(=O)(=O)c1cccc(NC(=O)N[C@@H]2CCN(c3cccc([N+](=O)[O-])n3)C2)c1` [44a, (R)-3-(3-(1-(6-Nitropyridin-2-yl)pyrrolidin-3-yl)ureido)benzenesulfonamide], the Ki is 74.8 nM on hCA VII; 6.1 nM on hCA II; 37.9 nM at hCA XII; 76 nM at hCA I; 2100 nM on hCA IV; 971 nM on hCA IX.

Consider `NS(=O)(=O)c1ccc(N2CC[C@H](NC(=O)Nc3ccc4c(c3)OCCO4)C2)nc1` [15b, (S)-6-(3-(3-(2,3-Dihydrobenzo[b][1,4]dioxin-6-yl)ureido)pyrrolidin-1-yl)pyridine-3-sulfonamide], for which the Ki on hCA VII stood at 29.5 nM; on hCA II, 400 nM; at hCA XII, 62.9 nM; at hCA I, 545 nM; at hCA IV, 5720 nM; at hCA IX it was 82 nM.
